In patent publication US10632127B2, “Targeted notch pathway inhibitors” (Hoffmann-La Roche Inc., priority 2015, dated 2020):
Where two headings read alike, the source gives them in different places.

Tests used:
[1] = target: Notch signal transduction pathway; test: In vitro Notch signal transduction pathway activity assay (DR215/F2 luciferase reporter); format: cell-based, human; conditions: for IC50 for blockade of the Notch pathway, range in words: DR215/F2 cell reporter assay; for IC50: Homo sapiens, 215/F2 reporter cell line, 19 h, mean of at least 3 experiments
Protocol: The compounds were dissolved in dimethyl sulfoxide (DMSO) at 10 mM stock solution, aliquoted and stored at −4° C. until use, then diluted in PBS or cell culture medium. In the experimental settings, controls containing increasing concentrations of DMSO, corresponding to the amount of DMSO of the diluted compounds were always included. For in vivo experiments, the compounds were dissolved in 0.9% NaCl, incubated 30 min at 40° C. and sonicated for 5 min.
The requirement of proteolytic activation of the prodrugs to inhibit Notch cleavage by the γ-secretase, was investigated using a reporter assay (Table 3). The DR215/F2 cell line expresses a reporter construct designed to monitor the activity of the Notch signal transduction pathway. The DR215/F2 cell line 39 carries two transgenes: the firefly luciferase reporter gene expressed under the control of the Gal4 promoter and the human Notch1 activator gene fused with the yeast Gal4 transcription factor. This assay confirmed that the prodrugs were able to inhibit γ-secretase and the activation of the Notch pathway. The DR215/F2 cell reporter assay was also used to determine the IC50 for blockade of the Notch pathway by all the compounds designed and prepared.
The values were determined using the 215/F2 reporter cell line for Notch activation by the γ-secretase. All values are the mean of at least 3 experiments.
The preparation and characterization of rat brain-derived EC219 endothelial cells have been described in Juillerat-Jeanneret, L. et al. In Vitro Cell. Dev. Biol. 1992, 28A, 537-543. These cells express high levels of APA and γ-GT activities and can be used for determining kinetics in living cells, and were chosen as APA- and γ-GT-positive representative cell models. EC219 cells were grown in DMEM medium containing 1 g/l glucose, 10% heat-inactivated fetal calf serum (FCS, EuroClone, UK) supplemented with 100 U/mL penicillin and 100 μg/mL streptomycin (P/S) on uncoated cell culture plastic ware. The HEK293 and HK2 human kidney cells are available from the ATCC (American Tissue Culture Collection, Manassas, Va., USA). HEK293 cells were grown on uncoated cell culture plastic ware in Iscove modified Dulbecco medium (IMDM, Life Technologies) containing 10% FCS and P/S. HK2 cells were grown on uncoated cell culture plastic ware in DMEM/F-12 GlutaMAX medium (Gibco) containing 5% FCS, P/S, 1% ITS (1.0 mg/ml bovine insulin, 0.55 mg/ml human transferrin and 0.5 μg/ml sodium selenite, Sigma-Aldrich) and 5 ng/ml hydrocortisone. The human HEK293-derived DR215/F2 embryonic kidney cell line, stably transfected with pFR Luc and APP-Notch Gal (plasmid DR215) as described in WO 2006/061136 A2 and Brockhaus, M. Neuroreport 1998 9, 1481-1486, were maintained using IMDM with 10% FCS supplemented with P/S and kept under double-selection with 150 μg/ml G-418 and 50 μg/ml hygromycin B on coated (1:100 Poly-L-lysine) cell culture plastic ware. In this assay, the Notch-Gal4 protein is bound to the cell membrane via its trans-membrane domain. The Notch intracellular domain is released by proteolytic cleavage mediated by the γ-secretase and moves to the cell nucleus where it activates the reporter luciferase gene transcript. Inhibition of γ-secretase thus decreases luciferase activity. Briefly, cultures were grown in 96-well microplates to 80% confluence; the cells were then washed in PBS and exposed to decreasing concentrations of the γ-secretase-inhibitor analogues in complete IMDM culture medium without red phenol at 37° C. for 19 h. Then 75 μl of supernatant from each well was removed and the luciferase activity was determined by adding 25 μl of Steady-Glo luciferase assay reagent (Promega).

[2] = Pharmacokinetic assessment in C57BL/6 healthy wild-type mice (i.p.); format: in vivo, mouse; conditions: C57BL/6 mice; for concentration at 0.5 h / concentration at 4 h / concentration at 7 h: male, mouse, ip
Protocol: For PK evaluation, the compounds were administered i.p to male C57BL/6 mice in suspension (gelatine/saline 7.5%/0.62% in water) using an administration volume of 4 mL/kg. Blood samples were collected in tubes containing EDTA, plasma was separated by centrifugation and stored at −80° C. Liver and kidney samples (˜100 mg aliquots) were homogenized in three volumes of water using Precellys tissue homogenization tubes (precellys.com). 25 μL of each tissue homogenate was further diluted with 25 μL blank plasma to produce the final tissue homogenate for extraction. All samples were analyzed using protein precipitation followed by LC-MS/MS analysis. Briefly, 50 μL plasma or final tissue homogenate were mixed with 50 μL 0.5M HClO4/acetonitrile 9/1 (containing 200 ng/mL internal standard bosentan). Samples were stirred and 300 μL water was added followed by centrifugation at 5600 rpm (4° C., 10 min). 10 μL supernatant was analyzed by LC/MS analysis. Calibration standards in plasma were prepared the same way. The LC column and conditions used were: Phenomenex, Polar RP, 4 μm, 50×2.1 mm at 0.4 mL/min flow rate with a 3 min gradient from 95% solvent A to 95% solvent B (Solvent A: Water/ACN/HCOOH, 90:10:0.1+10 mM NH4 formate; Solvent B: Water/ACN/HCOOH, 10:90:0.1+10 mM NH4 formate). Mass spectrometric conditions were: Thermo TSQ Vantage with positive heated electrospray ionization in MS/MS mode. Compounds mass transitions monitored were m/z 320.7 to 119.9. PK parameters for all studies were calculated using Phoenix WinNonlin Software.
We next determined the stability, tissue distribution and cleavage rate in plasma, liver and kidney of the designed prodrugs in non-diseased mice. In the in vivo screen, the kinetics and distribution of γ-secretase inhibitor prodrugs Ac-γ-Glu-SecrI (13a), Ac-α-Glu-SecrI (15a) and H-α-Glu-SecrI (15b) were compared with the active γ-secretase inhibitor amine-SecrI (11a). After i.p administration (10 mg/kg) in C57BL/6 mice, the disappearance of the prodrugs and the formation of the active amine-SecrI (11a) were compared in plasma, liver and kidney (Table 5). First, we determined the pharmacokinetics (PK) behavior of amine-SecrI (11a) following i.p. administration (Table 5A). […] Liver and kidney exposure were much higher, with approximately 4.5-fold higher exposure in liver compared to kidney. […] The selectivity towards kidney appeared to decrease over time, probably due to fast clearance and re-equilibration of the amine-SecrI (11a). However, the high selectivity at earlier time-points assured that the total exposure over time was much higher in the kidney compared to the liver.

[3] = kidney, 10 mg/kg i.p., 0.5 h, read-out: Kidney concentration of administered compound
[4] = kidney, 10 mg/kg i.p., 4 h, read-out: Kidney concentration of administered compound
[5] = kidney, 10 mg/kg i.p., 7 h, read-out: Kidney concentration of administered compound
[6] = liver, 10 mg/kg i.p., 0.5 h, read-out: Liver concentration of administered compound
[7] = liver, 10 mg/kg i.p., 4 h, read-out: Liver concentration of administered compound
[8] = liver, 10 mg/kg i.p., 7 h, read-out: Liver concentration of administered compound
[9] = plasma, 10 mg/kg i.p., 0.5 h, read-out: Plasma concentration of administered compound
[10] = plasma, 10 mg/kg i.p., 7 h, read-out: Plasma concentration of administered compound

Row | Structure (SMILES) | IC50 for blockade of the Notch pathway, range in words [1] | IC50 [1] [nM] | plasma exposure, in words ([2]; 10 mg/kg i.p.) | concentration at 0.5 h [2, 3] [ng/g] | concentration at 4 h [2, 4] [ng/g] | concentration at 7 h [2, 5] [ng/g] | concentration at 0.5 h [2, 6] [ng/g] | concentration at 4 h [2, 7] [ng/g] | concentration at 7 h [2, 8] [ng/g] | concentration at 0.5 h [2, 9] [ng/mL] | concentration at 7 h [2, 10] [ng/mL] | conversion to amine-SecrI (11a), in words ([2]; 10 mg/kg i.p.) | Plasma concentration of administered compound ([2]; 10 mg/kg i.p., 4 h) | also measured
1 | C[C@H]1Oc2ccc(F)cc2N(CCO)C(=O)[C@H]1NC(=O)[C@@](C)(O)C(=O)NCC(F)(F)C(F)(F)F [Compound 8, N-[(6R,7S)-2-Fluoro-9-(2-hydroxy-ethyl)-6-methyl-8-oxo-6,7,8,9-tetrahydro-5-oxa-9-aza-benzocyclohepten-7-yl]-2-(S)-hydroxy-2-methyl-N′-(2,2,3,3,3-pentafluoro-propyl)-malonamide] | low nanomolar range | 4.4 |  |  |  |  |  |  |  |  |  |  |  | 
2 | C[C@H]1Oc2ccc(F)cc2N(CCOC(=O)NCCN)C(=O)[C@H]1NC(=O)[C@@](C)(O)C(=O)NCC(F)(F)C(F)(F)F.Cl [Compound 11a, 2-((2R,3S)-7-Fluoro-3-((S)-2-hydroxy-2-methyl-3-oxo-3-(2,2,3,3,3-pentafluoropropylamino)propanamido)-2-methyl-4-oxo-3,4-dihydrobenzo[b][1,4]oxazepin-5(2H)-yl)ethyl 2-aminoethylcarbamate hydrochloride] | low nanomolar range | 45.6 | very low plasma exposure | 15500 | 1200 | 420 | 70000 | 3000 | 1200 | 97.8 | 2.08 |  |  | hydrolysis of the linker in 11a to the free antagonist 8 ([2]; 10 mg/kg i.p.): never observed significant amounts; exposure in liver compared to kidney ([2]; 11a 10 mg/kg i.p.): approximately 4.5 fold; 11a in kidney, relative amount (arbitrarily set to 100%) ([2]; 11a 10 mg/kg i.p., 0.5 h): (100) %; 11a in liver, relative amount (11a in kidney = 100%) ([2]; 11a 10 mg/kg i.p., 0.5 h): (450) %; 11a in kidney, relative amount (arbitrarily set to 100%) ([2]; 11a 10 mg/kg i.p., 4 h): (100) %; 11a in liver, relative amount (11a in kidney = 100%) ([2]; 11a 10 mg/kg i.p., 4 h): (250) %; 11a in kidney, relative amount (arbitrarily set to 100%) ([2]; 11a 10 mg/kg i.p., 7 h): (100) %; 11a in liver, relative amount (11a in kidney = 100%) ([2]; 11a 10 mg/kg i.p., 7 h): (290) %; formed 11a in plasma at all time-points ([2]; after 13a 10 mg/kg i.p.): below the limit of quantitation; Plasma concentration of formed 11a ([2]; after 13a 10 mg/kg i.p., 0.5 h): BQL; Plasma concentration of formed 11a ([2]; after 13a 10 mg/kg i.p., 4 h): BQL; Plasma concentration of formed 11a ([2]; after 13a 10 mg/kg i.p., 7 h): BQL; Plasma concentration of formed 11a ([2]; after 15b 10 mg/kg i.p., 7 h): BQL; concentration at 4 h ([2]; plasma, 10 mg/kg i.p., 4 h, read-out: Plasma concentration of administered compound): 1.32 ng/mL
3 | CC(=O)N[C@@H](CCC(=O)NCCNC(=O)OCCN1C(=O)[C@@H](NC(=O)[C@@](C)(O)C(=O)NCC(F)(F)C(F)(F)F)[C@@H](C)Oc2ccc(F)cc21)C(=O)O [Compound 13a, (S)-2-acetamido-5-(2-((2-((2R,3S)-7-fluoro-3-((S)-2-hydroxy-2-methyl-3-oxo-3-(2,2,3,3,3-pentafluoropropylamino)propanamido)-2-methyl-4-oxo-3,4-dihydrobenzo[b][1,4]oxazepin-5(2H)-yl)ethoxy)carbonylamino)ethylamino)-5-oxopentanoic acid] | μM range | 2880 | low plasma exposure | 1030 | 16.6 |  | 3570 | 625 | 22.3 | 4.88 |  | high conversion | BQL | Kidney concentration of administered compound ([2]; 10 mg/kg i.p., 7 h): BQL; Plasma concentration of administered compound ([2]; 10 mg/kg i.p., 7 h): BQL
4 | CC(=O)N[C@@H](CCC(=O)O)C(=O)NCCNC(=O)OCCN1C(=O)[C@@H](NC(=O)[C@@](C)(O)C(=O)NCC(F)(F)C(F)(F)F)[C@@H](C)Oc2ccc(F)cc21 [Compound 15a, (S)-4-acetamido-5-(2-((2-((2R,3S)-7-fluoro-3-((S)-2-hydroxy-2-methyl-3-oxo-3-(2,2,3,3,3-pentafluoropropylamino)propanamido)-2-methyl-4-oxo-3,4-dihydrobenzo[b][1,4]oxazepin-5(2H)-yl)ethoxy)carbonylamino)ethylamino)-5-oxopentanoic acid] | high nM range | 625 |  | 7540 | 81 | 33.8 | 7220 | 2850 | 737 | 573 | 6.29 | much lower extent | BQL | 
